Experimental data: publication PMC4931252 (Nature Communications, 2016)

Target: T1, prion protein PrP (PrP^C, SHaPrP) (Mesocricetus auratus, UniProt P04273)
T1 construct: gene PRNP
Assay type: binding

T1 sequence (P04273 90-231 limits assumed): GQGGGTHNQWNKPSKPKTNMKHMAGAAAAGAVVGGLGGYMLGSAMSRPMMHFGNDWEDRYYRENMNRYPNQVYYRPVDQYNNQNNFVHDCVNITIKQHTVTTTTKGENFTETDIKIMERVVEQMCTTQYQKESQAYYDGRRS

Compound: C[n+]1ccc(-c2c3nc(c(-c4cc[n+](C)cc4)c4ccc([nH]4)c(-c4cc[n+](C)cc4)c4nc(c(-c5cc[n+](C)cc5)c5ccc2[nH]5)C=C4)C=C3)cc1.[Fe+3] [Fe-TMPyP, iron(III) meso-tetra (N-methyl-4-pyridyl-porphine)]
- Kd: 9 ± 3 µM
